Data reported in patent US20060189566A1, “Muscle building agent and preventive or remedy for muscle weakening” (priority 2003, published 2006).

Experiments:
soleus muscle [1] = experiment: Protein content of soleus muscle in cast-immobilized rats; assay type: in vivo, rat; settings: mean ± SD; for Protein Content of Soleus Muscle, Non-immobilized: non-immobilized leg
Protocol: As test animals, 13 female 9-week-old rats of Fischer 344 strain (purchased from SLC Inc.) were used. The rats were preliminarily bred for 3 days in a chamber in which the temperature was adjusted to 22° C. under a bright-dark cycle where 07:00 to 19:00 was the bright period, and access to water and feed was ad libitum. After the preliminary breeding, the rats were divided into two groups, and a control feed was given to a control group consisting of 7 rats while a feed comprising CDP-choline (manufactured by Kyowa Hakko Kogyo Co., Ltd.) having the composition shown in Table 1 (hereinafter referred to as a CDP-choline feed) was given to the other group consisting of 6 rats for one day. Then, the right hind limb of each rat was immobilized in plaster cast under anesthesia with pentobarbital, followed by further feeding for one week under the above conditions. Thereafter, the rats were subjected to analysis with regard to the items shown below. Soleus muscle was finely cut in a 1.15% potassium chloride solution and a homogenate thereof was prepared using a glass homogenizer. After the homogenate was appropriately diluted, its protein content was measured using the Protein Assay Kit of Biorad. A calibration curve was prepared using a 2 mg/ml BSA solution.

plantar muscle = experiment: Wet weight of plantar muscle (absolute, atrophy rate, per body weight) in cast-immobilized rats; assay type: in vivo, rat; settings: mean ± SD; for Atrophy Rate (plantar muscle): decrease of immobilized muscle wet weight relative to non-immobilized taken as 100; for Wet Weight of Plantar Muscle, Immobilized / Wet Weight of Plantar Muscle per Body Weight, Immobilized: immobilized leg
Protocol: (§1) As test animals, 13 female 9-week-old rats of Fischer 344 strain (purchased from SLC Inc.) were used. The rats were preliminarily bred for 3 days in a chamber in which the temperature was adjusted to 22° C. under a bright-dark cycle where 07:00 to 19:00 was the bright period, and access to water and feed was ad libitum. After the preliminary breeding, the rats were divided into two groups, and a control feed was given to a control group consisting of 7 rats while a feed comprising CDP-choline (manufactured by Kyowa Hakko Kogyo Co., Ltd.) having the composition shown in Table 1 (hereinafter referred to as a CDP-choline feed) was given to the other group consisting of 6 rats for one day. Then, the right hind limb of each rat was immobilized in plaster cast under anesthesia with pentobarbital, followed by further feeding for one week under the above conditions. Thereafter, the rats were subjected to analysis with regard to the items shown below. In the test, two muscles, i.e., plantar muscle and soleus muscle located at the lower hind limbs of a rat, were used. Soleus muscle is a representative slow skeletal muscle in lower limbs where 80 to 90% of total muscle fibers are slow muscle fibers, and plantar muscle is a typical fast skeletal muscle where about 95% of total muscle fibers are fast muscle fibers. The rat was killed after body weight measurement, and the soleus muscle and plantar muscle of both the right and left lower hind limbs were quickly excised and washed with a physiological saline solution. After extraneous connective tissues, tendons, nerves, etc. were removed, the muscle wet weights of soleus muscle and plantar muscle were measured. The relative wet weight of muscle immobilized in a cast was determined for each rat based on the wet weight of muscle which was not immobilized in a cast, taken as 100, and the decrease in muscle weight was expressed as the atrophy rate. The wet weight of muscle relative to body weight was calculated by measuring the wet weight of both right and left soleus muscles and plantar muscles and dividing the obtained value by body weight. The wet weight of muscle per body weight excludes the influence of the difference in body weight on each muscle wet weight and reflects the muscle amount per body weight. The wet weight of soleus muscle per body weight is shown in Table 7, and the wet weight of plantar muscle per body weight is shown in Table 8.

C2C12 cells = experiment: Increase of intracellular protein in differentiated C2C12 cells (Methylene Blue method); assay type: cell-based, mouse; settings: 3 days; for Increase Rate of Intracellular Protein: control d0 = 0, control d3 = 100
Protocol: C2C12 cells were purchased from Dainippon Pharmaceutical Co., Ltd. Culturing was carried out according to the method of Craig, et al. [Methods in Cell Biology, 52, 85 (1998)]. A medium for growth was prepared by addition of 50 ml of FBS (manufactured by Gibco; Cat. No. 10099-141) and 5 ml of penicillin-streptomycin (manufactured by Gibco; Cat. No. 15140-122) to 500 ml of D-MEM medium (manufactured by Gibco; Cat. No. 11885-084). A medium for differentiation was prepared by addition of 10 ml of inactivated horse serum (manufactured by Gibco; Cat. No. 26050-088) and 5 ml of penicillin-streptomycin to 500 ml of the D-MEM medium. C2C12 cells were seeded and cultured in a 75-cm^2 flask containing 15 ml of the medium for growth and were subcultured before reaching confluence. Culturing was carried out in a CO2 incubator under 5% CO2 concentration and 100% relative humidity. The cell suspension diluted to 5×10^4 cells/ml with the medium for growth was added to each well of type I collagen-coated 96-well plate (Iwaki; Cat. No. 4860-010) in an amount of 100 μl. After confirming that the growth was uniform, the medium was replaced by the differentiation medium. Myogenesis was confirmed under a microscope after culturing for 3 days, and then a CDP-choline-containing PBS (−) solution was added to the medium until its final concentration reached 1 mg/ml or 0.1 mg/ml, followed by further culturing. […] The amount of intracellular protein was measured according to the method of Oliver, et al. [Journal of Cell Science, 92, 513 (1989)]. […] After the solution was appropriately diluted, the absorption at 650 nm was measured using a microplate reader. To determine the rate of increase of intracellular protein, the value of the test group (group to which CDP-choline was added) after culturing for 3 days was calculated based on the value before addition of CDP-choline (do) taken as 0 and the concentration of intracellular protein in the control group (group to which no CDP-choline was added) after culturing for 3 days (d3) taken as 100.

soleus muscle [2] = experiment: Wet weight of soleus muscle (absolute, atrophy rate, per body weight) in cast-immobilized rats; assay type: in vivo, rat; settings: mean ± SD; for Wet Weight of Soleus Muscle, Immobilized / Wet Weight of Soleus Muscle per Body Weight, Immobilized: immobilized leg; for Wet Weight of Soleus Muscle, Immobilized / Wet Weight of Soleus Muscle, Non-immobilized: 1 wt % CDP-choline feed; for Wet Weight of Soleus Muscle, Non-immobilized / Wet Weight of Soleus Muscle per Body Weight, Non-immobilized: non-immobilized leg
Protocol: as §1

soleus muscle [3] = experiment: Degradation rate of muscle plasma protein of soleus muscle (tyrosine release); assay type: in vivo, rat; settings: 2 hours incubation in Krebs-Henseleit bicarbonate buffer, mean ± SD; for Decomposition Rate of Muscle Plasma Protein of Soleus Muscle, Tyrosine, Non-immobilized: non-immobilized leg
Protocol: As test animals, 13 female 9-week-old rats of Fischer 344 strain (purchased from SLC Inc.) were used. The rats were preliminarily bred for 3 days in a chamber in which the temperature was adjusted to 22° C. under a bright-dark cycle where 07:00 to 19:00 was the bright period, and access to water and feed was ad libitum. After the preliminary breeding, the rats were divided into two groups, and a control feed was given to a control group consisting of 7 rats while a feed comprising CDP-choline (manufactured by Kyowa Hakko Kogyo Co., Ltd.) having the composition shown in Table 1 (hereinafter referred to as a CDP-choline feed) was given to the other group consisting of 6 rats for one day. Then, the right hind limb of each rat was immobilized in plaster cast under anesthesia with pentobarbital, followed by further feeding for one week under the above conditions. Thereafter, the rats were subjected to analysis with regard to the items shown below. Weighed soleus muscle was pre-incubated for 30 minutes in a Krebs-Henseleit bicarbonate buffer under aeration with […]. The muscle was then transferred to fresh Krebs-Henseleit bicarbonate buffer, and incubated for 2 hours. The concentration of tyrosine in the buffer was measured, whereby the degradation rate of muscle plasma protein was calculated. The concentration of tyrosine was measured by the fluorescence method of […], et al. using 1-nitroso-2-naphthol [J. Lab. Clin. Med., 50, 733 (1957)] (excitation wavelength: 435 nm; fluorescence wavelength: 545 nm). In order to prepare a calibration curve, a 5 nmol/ml tyrosine solution prepared as a standard solution was appropriately diluted and the relationship between its concentration and fluorescence intensity was plotted. By using the calibration curve thus prepared, the concentration of tyrosine in the buffer tested was determined from its fluorescence intensity.

SMILES: C[N+](C)(C)CCOP(=O)(O)OP(=O)([O-])OC[C@H]1O[C@@H](n2ccc(N)nc2=O)[C@H](O)[C@@H]1O [CDP-Choline, Cytidine diphosphate choline]
- Protein Content of Soleus Muscle, Immobilized (soleus muscle [1]; immobilized leg): 128.4 ± 10.0 mg protein/g tissue
- Protein Content of Soleus Muscle, Non-immobilized (soleus muscle [1]): 173.2 ± 15.0 mg protein/g tissue
- Protein Content of Soleus Muscle, Non-immobilized (soleus muscle [1]; listed as CDP-choline): significantly higher than the control group
- Atrophy Rate (plantar muscle) (plantar muscle): 15.8 ± 5.8%
- Atrophy Rate (plantar muscle) (plantar muscle; listed as CDP-choline): significantly lower
- Wet Weight of Plantar Muscle, Immobilized (plantar muscle; 1 wt % CDP-choline feed): 104.0 ± 2.7 mg
- Wet Weight of Plantar Muscle, Immobilized (plantar muscle; 1 wt % CDP-choline feed, listed as CDP-choline): significantly higher than the control group
- Wet Weight of Plantar Muscle per Body Weight, Immobilized (plantar muscle): 0.731 ± 0.029 mg/g body weight
- Wet Weight of Plantar Muscle per Body Weight, Immobilized (plantar muscle; listed as CDP-choline): significantly higher than the control group
- Wet Weight of Plantar Muscle, Non-immobilized (plantar muscle; non-immobilized leg, 1 wt % CDP-choline feed): 123.8 ± 7.4 mg
- Wet Weight of Plantar Muscle per Body Weight, Non-immobilized (plantar muscle; non-immobilized leg): 0.870 ± 0.052 mg/g body weight
- Increase Rate of Intracellular Protein (C2C12 cells; CDP-choline 0.1 mg/ml): 134
- Increase Rate of Intracellular Protein (C2C12 cells; CDP-choline 1 mg/ml): 141
- Amount of intracellular protein in C2C12 cells (C2C12 cells; CDP-choline 0.1 and 1 mg/ml): increased in a CDP-choline concentration dependent manner
- Atrophy Rate (soleus muscle) (soleus muscle [2]; decrease of immobilized muscle wet weight relative to non-immobilized taken as 100): 21.0 ± 6.5%
- Wet Weight of Soleus Muscle, Immobilized (soleus muscle [2]): 61.0 ± 5.2 mg
- Wet Weight of Soleus Muscle, Immobilized (soleus muscle [2]; listed as CDP-choline): no difference in wet weight of muscle
- Wet Weight of Soleus Muscle per Body Weight, Immobilized (soleus muscle [2]): 0.428 ± 0.027 mg/g body weight
- Wet Weight of Soleus Muscle per Body Weight, Immobilized (soleus muscle [2]; listed as CDP-choline): no difference
- Wet Weight of Soleus Muscle, Non-immobilized (soleus muscle [2]): 77.2 ± 3.9 mg
- Wet Weight of Soleus Muscle, Non-immobilized (soleus muscle [2]; listed as CDP-choline): no difference in wet weight of muscle
- Wet Weight of Soleus Muscle per Body Weight, Non-immobilized (soleus muscle [2]): 0.542 ± 0.030 mg/g body weight
- Wet Weight of Soleus Muscle per Body Weight, Non-immobilized (soleus muscle [2]; listed as CDP-choline): no difference
- Decomposition Rate of Muscle Plasma Protein of Soleus Muscle, Tyrosine, Immobilized (soleus muscle [3]; immobilized leg): 322.1 ± 98.0 nmol/g tissue/2 hours
- Decomposition Rate of Muscle Plasma Protein of Soleus Muscle, Tyrosine, Non-immobilized (soleus muscle [3]): 135.5 ± 50.1 nmol/g tissue/2 hours
- Decomposition Rate of Muscle Plasma Protein of Soleus Muscle, Tyrosine, Non-immobilized (soleus muscle [3]; listed as CDP-choline): significantly lower than the control group
